We go through 89 molecules from a melting point compilation (Tetko et al.; mined from patent text by program, amines drawn as free bases though some values may be those of a salt).

A word on the melting point: it is the temperature of the solid-liquid transition.

Consider `Cc1cccc2c1Oc1ccccc1N2`, for which the melting point came to 91 °C.

`CON1C(=O)CC2(CCN(C(=O)OCc3ccccc3)CC2)C1=O` displayed a melting point of 98 °C.

`COC(=O)Cc1ccc(OCCNC(=O)OCc2ccccc2)c(F)c1` came in with a melting point of 44 to 45 °C. Then `C=CCCCCN1C(=O)c2ccccc2C1=O`, with 17 to 20 °C. Then `Cc1cc(C)c(Nc2nc(C)ccc2S(=O)(=O)c2ccc(OCc3ccccc3C#N)cc2)c(C)c1`, with 208 to 210 °C; and `CC(C)(Cc1ccccc1)C(NC(=O)c1ccc(Cl)cc1)NC(=N[N+](=O)[O-])Nc1cccnc1` (centres undefined), with 205 to 207 °C; and `CC(=O)OCC1OC(Oc2cc(C)cc(O)c2C(C)=O)C(OC(C)=O)C(OC(C)=O)C1OC(C)=O` (centres undefined), with 140 to 142 °C. In turn, `N#CCc1ccc(NS(=O)(=O)c2ccc(N3CCNC3=O)cc2)cc1` returned a melting point of 204 to 206 °C. Then `O=C1CC(c2csc(-n3ccnc3)n2)=Nc2ccc(-c3ccc(F)cc3)cc2N1`, with 214 °C; and `Cc1ccccc1-c1ccc(C(=O)N2Cc3ccc(C(=O)NCCCCc4ccccc4)n3Cc3ccccc32)cc1C`, with 129 to 131 °C. Then `CC(=O)Oc1c(C)nc(N(C)C)nc1-c1ccccc1`, with 126 to 128 °C; and `O=C(Nn1c(=O)c(=O)[nH]c2ccc3ccccc3c21)c1ccccc1`, with over 300 °C; and `CC(=O)N1CCC(Oc2c(F)c(F)c(F)c(F)c2F)(c2ccccc2)CC1`, with 115 to 120 °C. Then `CCOC(=O)CCCn1c(=O)[nH]c2ccccc2c1=O`, with 133 to 135 °C; and `COc1ccc(Cl)cc1C(=N)Nc1ccc(F)c(NC(=O)/C=C/c2ccccc2Cl)c1`, with 229 to 230 °C; and `Oc1ccc(-c2nc(-c3ccc(Cl)cc3)nc(-c3ccc(O)cc3O)n2)c(O)c1`, with 232 to 234 °C. In turn, `CCCCCCCNc1ccncc1` displayed a melting point of 50 to 52 °C. `CCOc1ccc(N)cc1-c1nc2cccnc2c(=O)[nH]1` came in with a melting point of 208 to 210 °C. The molecule `N[C@H](Cc1ccc(OC(=O)OCc2ccccc2)cc1)C(=O)O` came in with a melting point of 208 to 210 °C. For `O=C(Nc1ccc(F)cc1)c1cccc(Cl)n1`, the melting point was determined as 98 °C. Then `O=C(CCc1oc(-n2ccnc2)nc1-c1ccc(Cl)cc1)NCCCl`, with 130 to 131 °C; and `COC(=O)C1=C(C)NC(C)=C(C(=O)OCC2(C)OCCO2)C1c1cccc([N+](=O)[O-])c1` (centres undefined), with 143 °C.

`COc1cc(-n2nc(C(F)(F)F)cc2C(F)(F)F)ccc1NC(=O)c1snnc1C` gave a melting point of 119 to 121 °C. Molecule `CC(=O)SCC(C)NS(=O)(=O)c1c(C)cc(C)cc1C` (centres undefined) had a melting point of 123 to 126 °C. Then `O=C(O)CC(c1ccccc1)N1CC(NC(=O)C(=NO)c2ccccc2)C1=O` (centres undefined), with 157 to 158 °C; and `CC(=O)Oc1cccc2c1OC(C)(C)C2`, with 49 to 50 °C. Then `CCOC1=NC(N)=C(C(=O)OC)C(c2cccc(Cl)c2)C1C(=O)OC` (centres undefined), with 158 °C; and `CCN(C(=O)C(=O)O)c1ccc2c(C)cc(=O)oc2c1`, with 142 °C; and `CC(=O)Nc1ccc(C=O)c(C)c1C#N`, with 170 to 173 °C.

`CCS(=O)(=O)N[C@H](C(=O)NCCc1ccc(OC/C=C\c2ccc(Cl)cc2)c(OC)c1)C(C)C`: the melting point lay in the range of 141 to 143 °C. For `Cc1ccc(C(=O)OC2CCN(Cc3cccc(N)c3)CC2)cc1`, the melting point lay within 100 to 102 °C. Then `CN(Cc1cc(C(F)(F)F)cc(C(F)(F)F)c1)C(=O)c1nc(Cl)c2ccccc2c1-c1ccccc1`, with 176 to 177 °C.

`CCOC(=O)CCCCC(=O)c1ccc2cc(OCCC(C)C)ccc2c1` showed a melting point of 65 to 66 °C. The molecule `OCc1cnoc1-c1cccc(Cl)c1` gave a melting point of 80 to 81 °C. Then `COc1cc(Nc2nccc(-c3sc(NCCc4ccccc4)nc3C)n2)cc(OC)c1OC`, with 184 to 186 °C; and `Cn1c2ccccc2c2oc(C(N)=O)cc(=O)c21`, with over 295 °C; and `Cc1sc2nc3ccc(C(N)=O)cn3c(=O)c2c1C`, with 361 to 363 °C. Then `Cc1cc(Oc2ccccc2)nc2ccccc12`, with 101 °C; and `CC(C)NC(=O)c1cnn(C)c1C(=O)Nc1ccn2nc(-c3ccccc3)nc2c1`, with over 250 °C. `CC(C)C[C@H](N)[C@@H](O)CCSCCc1ccccc1` had a melting point of 95 to 96 °C. Then `COc1cc2cc(C(=O)N3CC(COS(C)(=O)=O)c4c3cc(N)c3ccccc43)[nH]c2c(OC)c1OC` (centres undefined), with over 260 °C; and `Cc1c(F)c(N2CCN(C=O)C(C)C2)cc2c1c(=O)c(C=O)cn2C1CC1` (centres undefined), with 258 to 260 °C. Then `CC(C)(C)OC(=O)NC1CC1F` (centres undefined), with 58 to 60 °C; and `COc1ccc(CN2CCN(c3nc(C)c(C(N)=O)s3)C2=O)cc1F`, with 182 to 184 °C; and `CC(=O)Nc1cccc2c1C(=O)OC2C` (centres undefined), with 112 °C. Then `CCCc1ccc(C(=O)Nc2ccc(C(C)=O)cc2)cc1`, with 174 to 176 °C; and `COc1cc(N)cc(C#N)c1`, with 81 to 85 °C.

As to `CN(Cc1ccc(NC(=O)C2=Cc3cc(-c4ccc(N5CCCCC5)cc4)ccc3CCC2)cc1)C1CCOCC1`, the melting point was in the range of 170 to 171 °C.

`N#Cc1ccc(CC=O)cc1` showed a melting point of 63 to 65 °C.

Regarding `O=C1NC(=O)c2cc(Nc3ccc(F)cc3)c(Nc3ccc(F)cc3)cc21`, the melting point is over 220 °C. Then `COc1cc(Nc2nccc(Nc3cccc(C)c3S(N)(=O)=O)n2)cc(OC)c1OC`, with 72 to 75 °C; and `CCN(CC)C(=O)c1ccc(OCOC)cc1-c1ccccc1`, with 63 to 64 °C. In turn, `O=[N+]([O-])c1ccc(-c2cc(Br)sc2-c2ccc(F)cc2)cc1` showed a melting point of 129 to 130 °C.

Turning to `O=C(NCl)c1c(C(F)(F)F)cc(Cl)nc1Cl`, the melting point was in the range of 136 to 138 °C.

`COCS(=O)(=O)c1ccc(C=C(C)c2ccc3c(c2)C(C)(C)CCC3(C)C)cc1` returned a melting point of 154 to 156 °C. Then `CSc1nc2ccccc2n2cc(-c3ccccc3)cc12`, with 132 °C; and `COC(=O)c1c(F)c(F)c(NCc2ccccc2)c(F)c1F`, with 96 to 97 °C; and `CCCc1ncc(/C=C2\C(=O)N(CC(=O)OC)c3cccc(C)c32)n1Cc1ccc(C(=O)OC)cc1`, with 228 to 230 °C. Then `O=C(Cc1ccc(-c2ccc(C(CC3CCOCC3)c3ccc(S(=O)(=O)C4CC4)cc3)[nH]2)nc1)N1CCOCC1` (centres undefined), with 202 to 203 °C. Then `COc1c(-c2cc3c(s2)CCC(CO)=C3)ccc2c(=O)c(C(=O)O)cn(C3CC3)c12`, with 205 to 206 °C. `Cc1ncc(C(=O)NCCOCCO[N+](=O)[O-])s1` returned a melting point of 47 to 48 °C. Consider `Nc1cc(-n2cc(C(=O)O)c(=O)c3cc(F)c(Cl)nc32)c(F)cc1Cl`, for which the melting point was over 270 °C. Molecule `CC(C)=NOCCCCn1cnc2c(N)nc3c(c21)CCCC3` returned a melting point of 151 to 153 °C. Take `O=C1c2ccccc2C=C(Cl)Cc2ccccc21`: the melting point was 109 to 110 °C. `CC(C(N)=O)c1ccc2c(c1)oc1ccc(Cl)cc12` (centres undefined) showed a melting point of 210 to 211 °C.

`CC(C)S(=O)(=O)c1ccc2c(c1)nc(CC(C)(C)C)n2CCN1CCOCC1`: the melting point is 151 °C.

In turn, `O=C(OC(c1ccccc1)c1ccccc1)[C@H](O)CCc1ccccc1` showed a melting point of 82 to 84 °C. Then `CC(CO)N1CCN(c2cccc3c2OCCO3)CC1` (centres undefined), with 91 to 92 °C; and `Cc1ccc(N2CCN(Cc3n[nH]c4c(Cl)cccc34)CC2)cc1`, with 187 to 188 °C; and `COC(=O)c1[nH]c2c(C)ccc(Cl)c2c1C(=O)OC`, with 173 to 174 °C. Then `Nc1c(Cl)cc(C(O)CNCCCCOCCSCCc2ccccc2)cc1Cl` (centres undefined), with 74 to 77 °C.

As for `CCCn1nnn(-c2cc(OCC(=O)O)c(Cl)cc2Cl)c1=O`, the melting point lay in the range of 134 to 136 °C. For `O=C(O)C1=Cc2c(ccc3occ(-c4ccc(Br)cc4)c23)OC1C(F)(F)F` (centres undefined), the melting point is over 250 °C.

Molecule `Cc1oc(-c2ccccc2)nc1COc1ccc(COc2ccccc2CC(=O)O)cc1` returned a melting point of 153 to 154 °C.

On to `CCCCCS(=O)(=O)NC(=O)CCCc1ccc(OCCOCC)cc1Oc1ncc(C(F)(F)F)cc1Cl`, for which the melting point was 96 to 97 °C.

Regarding `CC(C)c1cccc(C(C)C)c1NC(=O)C(C)(C)CCCOc1ccc2c(c1)C=C(c1nccn1C)C(CCc1ccccc1)O2` (racemic), the melting point was in the range of 108 to 110 °C. Then `CCOC(=O)c1cc2c(nc1N)CCN(Cc1ccccc1)C2`, with 141 to 143 °C. Then `c1ccc(-c2n[nH]c3c2Cc2ccccc2-3)cc1`, with 234 to 236 °C; and `O=C(c1ccc(-c2ccccn2)cc1)N1Cc2cccn2Cc2ccccc21`, with 170 to 172 °C. Then `Fc1cccc(SCc2nnc(-c3ccc4c(c3)CCO4)o2)c1`, with 55 to 56 °C; and `Cc1cn(C)c2cc(NC(=O)c3ccc(C(C)(C)O)cc3)ncc12`, with 196 to 197 °C; and `N#Cc1cccc2c1ccn2-c1ncc(C(F)(F)F)cc1Cl`, with 109 to 111 °C. In the case of `COc1cc(COc2ccccc2C=O)cc(OC)c1`, the melting point lay in the range of 68 to 69 °C. On to `O=C(Nc1ccc(Cl)nc1)c1cccc(Cl)c1`, for which the melting point was in the range of 227 to 229 °C. `Cc1cc(S(=O)(=O)N2c3ccccc3-c3ccccc3C2C)ccc1O` (centres undefined) had a melting point of 186 to 188 °C. Then `CS(=O)(=O)c1ccc(C(=O)c2cnoc2C2CC2)c(Cl)c1`, with 116 °C; and `Cc1cc2ncnn2nc1OCC(C)(C)CCCS(N)(=O)=O`, with 171 to 172 °C; and `COc1ccc(CN(C)CCCOc2ccc(NC(=O)c3cccc4c(=O)c5cccc(F)c5[nH]c34)cc2)cc1OC`, with 150 °C.

`CCOC(=O)CCNC(=O)Nc1ccc([N+](=O)[O-])cc1O` gave a melting point of 115 to 116 °C.
